Data on 13 compounds can be found in PubChem BioAssay (NCI).

Values joined by “and” are separate entries in the source; they are usually repeats but may differ in a detail not shown here. Equal values may be shown once.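 Tested at 5 concentrations; 48 h exposure; 96-well plates; endpoints linearly interpolated, else capped at highest concentration. At the GI50, growth is halved. The concentration for full growth arrest is given as TGI.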 Some results are limits rather than exact numbers.

Holding throughout (assay): NCI tumour cell line growth inhibition, 48 h
In assay [1] the test system is HOP-18 NSCLC.
The subject of assay [2] is HT29 colon.
Assay [3] concerns HCT-15 colon.
Assay [4] has as its system SK-OV-3 ovarian.
Assay [5] has as its system NCI-H460 lung.
Assay [6] relates to DMS 114 small cell lung.
In assay [7] the test system is COLO 205 colon.
Assay [8] concerns TK-10 renal.
The subject of assay [9] is XF 498 CNS.
Assay [10] relates to NCI/ADR-RES ovarian.

With `CC1=C(/C=C/C(C)=C/C=C/C(C)=C/C=C/C=C(C)/C=C/C=C(C)/C=C/C2=C(C)C(=O)C(O)CC2(C)C)C(C)(C)CC(O)C1=O` (stereo unspecified), the TGI in assay [1], in [2], in [3], in assay [4], in assay [5] and in assay [6] was over 100 µM in each case. The TGI in [7] and in assay [8] was over 100 µM each time.
As for `Cc1cccc(N=C2NC(=O)C(CC(=O)Nc3ccc(C)cc3C)S2)c1` (stereo unspecified), the TGI in assay [2], in assay [3], in assay [9], in assay [5], in assay [6] and in assay [8] was over 100 µM throughout.
Turning to `CCC[CH2][Sn]1([CH2]CCC)[O]C(=O)c2ccc(N)cc2[O]1`, the GI50 in assay [10] is 1.76 µM; in [1], 0.997 µM; in assay [2], 1.33 µM; in [3], 0.46 µM; in [4], 1.34 µM; in assay [5], 1.73 µM. Also, the GI50 in assay [7] is 0.594 µM; in [8], 0.528 µM. Besides, the TGI in [10] came to 4.12 µM; in assay [1], 2.18 µM; in assay [2] it was 2.73 µM; in assay [3], 2.21 µM; in assay [4] it was 2.92 µM; in assay [5] it was 4.21 µM. The TGI was determined as 1.98 µM in assay [7] and 1.69 µM in assay [8].
As for `N#Cc1c(C[n+]2ccccc2)c2ccccc2oc1=O`, the TGI in [2], in assay [3], in [9], in assay [4], in assay [5] and in assay [6] was over 100 µM in each case. For the same compound, the TGI in assay [7] is over 100 µM.
Take `Nc1ccc(C(=O)CC2(O)C(=O)Nc3c(Cl)cc(Cl)cc32)cc1` (stereo unspecified): the TGI in assay [1], in assay [2], in assay [3], in assay [4], in [5] and in [7] was over 100 µM in each case. The same compound returned a TGI in assay [8] of over 100 µM.
Turning to `CC(C)(C)n1cc(-c2ccnc(NCCCNS(=O)(=O)c3ccc(Br)cc3)c2)c(-c2cccc(O)c2)n1`, the GI50 is 2.21 µM in assay [10]; 1.42 µM in assay [2]; 1.48 µM in [3]; 2.53 µM in assay [4]; 1.99 µM in assay [5]; 1.85 µM in assay [7]. Besides, the GI50 in assay [8] is 2.51 µM. The TGI was determined as 5.03 µM in assay [10]; 3.79 µM in [2]; 3.17 µM in assay [3]; 6.26 µM in assay [4]; 3.99 µM in [5]; 3.79 µM in assay [7]. In addition, in assay [8], the TGI turned out to be 6.62 µM.
`COc1cc(C2c3cc4c(cc3[C@@H](N(C)C)[C@H]3COC(=O)C23)OCO4)cc(OC)c1O` (stereo partly specified): the TGI in assay [2], in assay [3], in assay [9], in assay [4], in [5] and in [7] was over 100 µM each time. The compound also returned a TGI in assay [8] of over 100 µM.
On to `COC(=O)C1Cc2c([nH]c3ccccc23)C(c2ccccc2O)N1Cc1ccccc1` (stereo unspecified), for which the TGI in assay [1] was over 46.4 µM; in assay [2], over 46.4 µM; in assay [3] it was over 46.4 µM; in [4] it was 40.1 µM; in assay [5] it was over 46.4 µM; in assay [6], over 31.6 µM. For the same compound, the TGI in [7] and in [8] was over 46.4 µM each time.
As for `Cc1c(Cl)cccc1NC(=O)/C(Cl)=C(\Cl)C(=O)O`, the TGI in assay [1] is 31.7 µM; in assay [2], 38 µM; in [3] it was 30 µM; in assay [4], 33.3 µM; in assay [5] it was over 100 µM; in assay [6], 36.5 µM. The TGI in assay [7] amounted to 21.6 µM; in assay [8], 35.2 µM.
In the case of `COc1ccc(NC(=O)n2nc(/C=C\c3ccc(O)c(OC)c3)cc2/C=C\c2ccc(O)c(OC)c2)cc1`, the GI50 in assay [10] was 4.28 µM; in assay [2], 3.52 µM; in assay [3], 2.98 µM; in assay [4] it was 3.66 µM; in assay [5], 4.24 µM; in [7] it was 16.2 µM. Further, the GI50 in assay [8] was 10.2 µM. The TGI in assay [10] was over 100 µM; in assay [2], 11 µM; in assay [3], over 100 µM; in assay [4] it was 27.5 µM; in assay [5] it was 31.4 µM; in assay [7], 44.3 µM. The compound also had a TGI in assay [8] of 95.3 µM.
Take `O=c1cc(-c2ccccn2)[nH]c2cc(F)ccc12`: the TGI in assay [1], in assay [2], in assay [4], in assay [5], in [6] and in assay [7] was over 100 µM in each case. In addition, the TGI in assay [8] is over 100 µM. Further, in assay [6], the GI50 is 52.4 µM.
Turning to `CC[C@@]12C=CCN3CC[C@]4(c5cc(NC(=O)COc6cc(OCC(=O)Nc7cc8c(cc7OC)N(C)[C@H]7[C@@](O)(C(=O)OC)[C@H](OC(C)=O)[C@]9(CC)C=CCN%10CC[C@]87[C@@H]%109)cc7oc(-c8ccccc8)cc(=O)c67)c(OC)cc5N(C)[C@@H]4[C@](O)(C(=O)OC)[C@H]1OC(C)=O)[C@H]32`, the GI50 in [10] is over 100 µM; in assay [2], 3.42 µM; in assay [3] it was 1.7 µM; in [4], 6.49 µM; in assay [5], 2.55 µM; in assay [7], 3.88 µM. Besides, the GI50 in assay [8] was 12.3 µM. Also, the TGI in assay [10] is over 100 µM; in assay [2], over 100 µM; in [3], 12.1 µM; in assay [4], 19.7 µM; in assay [5] it was 7.15 µM; in [7], 27.3 µM. In [8], this compound had a TGI of 61.7 µM.
In the case of `COc1cc2ncnc3c2cc1OCCCCCN(C)Cc1ccc(Br)cc1N3`, the GI50 in assay [10] was 3.34 µM and 2.04 µM; in assay [2], 6.34 µM and 3.35 µM; in assay [3], 0.885 µM and 0.975 µM; in assay [4] it was 0.315 µM; in [5], 3.44 µM and 1.27 µM; in assay [7], 5.68 µM and 4.67 µM. Besides, in [8], the GI50 was 0.186 µM and 0.166 µM. Besides, the TGI in assay [10] was over 100 µM; in assay [2] it was over 100 µM; in [3], over 100 µM; in assay [4], 1.09 µM; in assay [5], over 100 µM; in assay [7], over 100 µM. Besides, the TGI in [8] is over 100 µM.
